From paper PMC7591811 (Journal of Pharmaceutical Analysis, 2020)

How the values were obtained:
[1] = target: Melatonin MT1 (Homo sapiens, UniProt P48039); test: Lead profiling screen; format: binding
[2] = target: T1, Adenosine A3 (Homo sapiens, UniProt P0DMS8); test: Lead profiling screen; format: binding; conditions: for inhibition at 10 µM: Adenosine A3, Human
T1 sequence (P0DMS8 1-318): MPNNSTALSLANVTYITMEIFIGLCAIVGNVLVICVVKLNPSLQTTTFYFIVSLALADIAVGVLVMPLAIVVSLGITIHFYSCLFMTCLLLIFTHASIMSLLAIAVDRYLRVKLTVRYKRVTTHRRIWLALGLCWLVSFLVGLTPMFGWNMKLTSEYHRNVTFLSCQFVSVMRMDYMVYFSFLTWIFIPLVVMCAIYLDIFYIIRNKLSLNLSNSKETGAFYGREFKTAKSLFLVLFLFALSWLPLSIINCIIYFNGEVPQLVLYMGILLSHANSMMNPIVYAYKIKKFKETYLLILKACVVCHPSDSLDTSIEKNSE

[3] = tested on: BZD (central); test: Lead profiling screen; format: binding; conditions: 10 μM, Rat
[4] = target: BZD (peripheral) (Rattus norvegicus, UniProt P16257); test: Lead profiling screen; format: binding; conditions: for inhibition at 10 µM: BZD (peripheral) / TSPO, Rat
[5] = target: T2, Melatonin MT2 (Homo sapiens, UniProt P49286); test: Lead profiling screen; format: binding; conditions: for inhibition at 10 µM: Melatonin MT2, Human
T2 sequence (P49286 1-362): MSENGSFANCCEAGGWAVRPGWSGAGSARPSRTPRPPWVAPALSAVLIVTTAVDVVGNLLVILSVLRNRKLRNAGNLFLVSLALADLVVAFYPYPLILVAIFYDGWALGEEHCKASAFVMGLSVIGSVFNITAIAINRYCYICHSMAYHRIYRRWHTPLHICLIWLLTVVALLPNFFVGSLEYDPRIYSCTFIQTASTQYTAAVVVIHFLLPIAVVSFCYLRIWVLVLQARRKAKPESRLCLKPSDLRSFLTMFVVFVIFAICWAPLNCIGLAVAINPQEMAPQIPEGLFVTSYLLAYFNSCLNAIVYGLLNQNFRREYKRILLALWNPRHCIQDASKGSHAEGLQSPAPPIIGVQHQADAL

[6] = target: T3, AR (Homo sapiens, UniProt P10275); test: Lead profiling screen; format: binding; conditions: Rat
T3 sequence (P10275 1-920): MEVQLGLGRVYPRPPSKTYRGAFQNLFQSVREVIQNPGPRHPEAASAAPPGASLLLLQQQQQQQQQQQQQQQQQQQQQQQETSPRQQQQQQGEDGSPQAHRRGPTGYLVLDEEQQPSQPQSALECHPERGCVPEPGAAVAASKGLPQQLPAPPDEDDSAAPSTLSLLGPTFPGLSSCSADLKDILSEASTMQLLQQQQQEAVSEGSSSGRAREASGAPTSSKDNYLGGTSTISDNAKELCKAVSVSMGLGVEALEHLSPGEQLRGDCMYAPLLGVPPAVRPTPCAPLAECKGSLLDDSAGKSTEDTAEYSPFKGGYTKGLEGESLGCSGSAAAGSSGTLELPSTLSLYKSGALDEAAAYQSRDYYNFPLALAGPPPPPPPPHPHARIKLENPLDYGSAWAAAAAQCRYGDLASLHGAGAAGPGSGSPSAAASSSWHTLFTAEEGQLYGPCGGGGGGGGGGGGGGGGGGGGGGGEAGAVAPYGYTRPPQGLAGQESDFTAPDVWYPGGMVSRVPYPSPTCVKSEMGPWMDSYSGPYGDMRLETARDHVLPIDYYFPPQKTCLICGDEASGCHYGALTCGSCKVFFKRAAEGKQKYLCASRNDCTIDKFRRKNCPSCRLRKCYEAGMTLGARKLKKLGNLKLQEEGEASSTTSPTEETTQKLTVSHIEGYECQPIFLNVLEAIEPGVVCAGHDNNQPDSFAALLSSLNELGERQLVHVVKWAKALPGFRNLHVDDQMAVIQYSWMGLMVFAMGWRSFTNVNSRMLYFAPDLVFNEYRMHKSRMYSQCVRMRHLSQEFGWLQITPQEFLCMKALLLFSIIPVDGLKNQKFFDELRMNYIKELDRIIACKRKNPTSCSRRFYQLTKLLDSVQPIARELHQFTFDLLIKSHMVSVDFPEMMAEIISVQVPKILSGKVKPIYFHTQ

[7] = tested on: Cl^- channel (GABA gated); test: Lead profiling screen; format: binding; conditions: 10 μM, Rat
[8] = target: Serotonin (5-Hydroxytryptamine) 5-HT2B (Homo sapiens, UniProt P41595); test: Lead profiling screen; format: binding; conditions: for inhibition at 10 µM: 5-HT2B, Human
[9] = target: T4, UT (Homo sapiens, UniProt Q9UKP6); test: Lead profiling screen; format: binding; conditions: for inhibition at 10 µM: UT, Human
T4 sequence (Q9UKP6 1-389): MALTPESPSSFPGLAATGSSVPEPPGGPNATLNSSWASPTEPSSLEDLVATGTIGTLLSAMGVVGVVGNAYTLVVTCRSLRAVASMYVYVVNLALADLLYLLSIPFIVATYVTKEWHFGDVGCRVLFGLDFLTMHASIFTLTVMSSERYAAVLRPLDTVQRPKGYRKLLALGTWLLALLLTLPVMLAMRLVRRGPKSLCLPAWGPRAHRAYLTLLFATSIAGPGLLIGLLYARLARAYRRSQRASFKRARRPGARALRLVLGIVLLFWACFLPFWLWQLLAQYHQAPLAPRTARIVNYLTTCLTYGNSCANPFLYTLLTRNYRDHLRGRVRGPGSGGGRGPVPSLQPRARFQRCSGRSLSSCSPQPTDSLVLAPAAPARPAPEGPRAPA

[10] = target: Cyclooxygenase 1 (Homo sapiens, UniProt P23219); test: Lead profiling screen, enzyme assay; format: biochemical
[11] = target: ctRAGE; conditions: read-out: ctRAGE Kd; cited from earlier work
[12] = target: EP2 (Homo sapiens, UniProt P43116); test: Lead profiling screen; format: binding
[13] = target: Serotonin (5-Hydroxytryptamine) 5-HT2A (Homo sapiens, UniProt P28223); test: Lead profiling screen; format: binding
[14] = target: Norephinephrine transporter (Homo sapiens, UniProt P23975); test: Lead profiling screen; format: binding
[15] = [18F]RAGER autoradiography, competitive binding with melatonin; set-up: species or system human; conditions: 10 μM melatonin; control, AD and DLB + AD brain tissue sections
[16] = Rodent [18F]RAGER PET, melatonin blocking; conditions: 5 μg/kg i.v. 10 min prior to [18F]RAGER, healthy rodents
[17] = Nonhuman primate [18F]RAGER PET, melatonin blocking and displacement; conditions: NHP
[18] = target: T5, Androgen (Testosterone) (Homo sapiens, UniProt P10275); test: Lead profiling screen; format: binding
T5 sequence (P10275 1-920): T3 sequence (P10275 1-920)

[19] = target: Transporter, Dopamine (DAT) (Homo sapiens, UniProt Q01959); test: Lead profiling screen; format: binding
[20] = target: Peripheral benzodiazepine receptor (Rattus norvegicus, UniProt P16257); test: Lead profiling screen, RAGER; format: binding
[21] = cited from earlier work

Sequence of Melatonin MT1 (P48039 whole entry): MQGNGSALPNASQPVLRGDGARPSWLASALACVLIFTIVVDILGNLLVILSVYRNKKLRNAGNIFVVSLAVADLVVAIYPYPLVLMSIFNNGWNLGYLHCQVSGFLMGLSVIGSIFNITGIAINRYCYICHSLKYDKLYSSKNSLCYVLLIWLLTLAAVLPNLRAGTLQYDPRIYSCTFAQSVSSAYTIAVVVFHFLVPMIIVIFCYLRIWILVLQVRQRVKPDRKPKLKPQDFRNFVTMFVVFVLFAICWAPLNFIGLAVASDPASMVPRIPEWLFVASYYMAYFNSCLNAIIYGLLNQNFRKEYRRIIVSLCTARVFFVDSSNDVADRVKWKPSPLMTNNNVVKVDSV
Sequence of BZD (peripheral) (P16257 whole entry): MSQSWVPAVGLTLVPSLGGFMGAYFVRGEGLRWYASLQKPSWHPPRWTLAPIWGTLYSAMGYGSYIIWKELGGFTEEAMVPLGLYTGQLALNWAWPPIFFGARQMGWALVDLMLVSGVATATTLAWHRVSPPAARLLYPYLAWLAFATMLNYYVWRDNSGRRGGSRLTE
Sequence of Serotonin (5-Hydroxytryptamine) 5-HT2B (P41595 whole entry): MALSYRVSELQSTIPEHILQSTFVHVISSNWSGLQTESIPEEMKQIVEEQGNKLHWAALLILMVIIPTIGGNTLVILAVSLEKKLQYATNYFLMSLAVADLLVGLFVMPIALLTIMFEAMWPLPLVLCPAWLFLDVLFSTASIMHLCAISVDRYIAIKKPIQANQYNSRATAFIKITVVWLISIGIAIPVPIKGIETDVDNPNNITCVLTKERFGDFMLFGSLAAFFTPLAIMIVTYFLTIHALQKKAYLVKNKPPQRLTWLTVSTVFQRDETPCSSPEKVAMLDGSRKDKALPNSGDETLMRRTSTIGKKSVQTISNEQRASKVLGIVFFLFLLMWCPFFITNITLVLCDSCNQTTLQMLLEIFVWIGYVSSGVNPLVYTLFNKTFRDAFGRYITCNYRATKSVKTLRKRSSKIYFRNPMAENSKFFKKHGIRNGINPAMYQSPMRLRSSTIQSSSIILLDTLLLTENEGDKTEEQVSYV
Sequence of Norephinephrine transporter (P23975 whole entry): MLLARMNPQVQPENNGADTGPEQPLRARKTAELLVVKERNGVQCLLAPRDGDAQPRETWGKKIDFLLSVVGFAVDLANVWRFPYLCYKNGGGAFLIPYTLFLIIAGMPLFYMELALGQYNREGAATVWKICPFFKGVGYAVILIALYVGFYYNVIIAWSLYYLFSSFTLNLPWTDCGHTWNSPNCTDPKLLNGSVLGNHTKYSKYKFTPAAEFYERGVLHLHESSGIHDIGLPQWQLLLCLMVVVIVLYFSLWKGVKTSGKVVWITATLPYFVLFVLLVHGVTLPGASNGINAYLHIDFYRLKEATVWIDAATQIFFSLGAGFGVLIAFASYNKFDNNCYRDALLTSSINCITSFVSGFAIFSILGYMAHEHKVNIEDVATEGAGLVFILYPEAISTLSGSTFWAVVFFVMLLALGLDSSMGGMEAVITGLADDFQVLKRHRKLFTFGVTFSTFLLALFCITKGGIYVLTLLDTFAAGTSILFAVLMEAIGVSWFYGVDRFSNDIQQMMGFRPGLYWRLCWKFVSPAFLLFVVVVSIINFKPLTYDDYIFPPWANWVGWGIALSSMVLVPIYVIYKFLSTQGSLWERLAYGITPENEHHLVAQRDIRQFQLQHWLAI
Sequence of EP2 (P43116 whole entry): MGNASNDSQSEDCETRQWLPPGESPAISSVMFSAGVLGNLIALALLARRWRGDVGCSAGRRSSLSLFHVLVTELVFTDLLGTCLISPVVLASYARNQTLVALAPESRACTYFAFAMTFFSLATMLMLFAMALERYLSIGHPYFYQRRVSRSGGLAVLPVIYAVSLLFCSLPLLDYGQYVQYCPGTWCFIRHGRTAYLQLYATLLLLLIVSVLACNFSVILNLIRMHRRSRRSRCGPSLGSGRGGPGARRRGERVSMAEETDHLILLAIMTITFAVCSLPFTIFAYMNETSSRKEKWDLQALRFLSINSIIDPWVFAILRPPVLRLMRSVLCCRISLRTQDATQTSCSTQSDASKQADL
Sequence of Peripheral benzodiazepine receptor (P16257 whole entry): as the sequence (P16257 whole entry) above
Sequence of Transporter, Dopamine (DAT) (Q01959 whole entry): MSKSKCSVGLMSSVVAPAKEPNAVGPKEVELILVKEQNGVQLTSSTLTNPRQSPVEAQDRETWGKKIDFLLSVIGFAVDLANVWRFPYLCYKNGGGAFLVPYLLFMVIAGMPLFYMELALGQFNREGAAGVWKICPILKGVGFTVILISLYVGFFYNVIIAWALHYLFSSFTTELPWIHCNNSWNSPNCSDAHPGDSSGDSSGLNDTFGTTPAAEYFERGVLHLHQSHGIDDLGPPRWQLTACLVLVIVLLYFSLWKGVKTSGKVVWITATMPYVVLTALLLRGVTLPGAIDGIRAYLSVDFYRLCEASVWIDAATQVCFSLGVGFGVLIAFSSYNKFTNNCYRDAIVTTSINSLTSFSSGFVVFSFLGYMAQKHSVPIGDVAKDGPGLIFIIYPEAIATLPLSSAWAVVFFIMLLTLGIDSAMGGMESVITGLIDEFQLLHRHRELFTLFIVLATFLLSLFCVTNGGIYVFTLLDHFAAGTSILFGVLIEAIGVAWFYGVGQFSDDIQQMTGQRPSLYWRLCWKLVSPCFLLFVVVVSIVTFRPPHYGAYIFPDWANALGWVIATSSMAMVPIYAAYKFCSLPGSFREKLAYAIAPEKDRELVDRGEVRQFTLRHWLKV
Sequence of Serotonin (5-Hydroxytryptamine) 5-HT2A (P28223 whole entry): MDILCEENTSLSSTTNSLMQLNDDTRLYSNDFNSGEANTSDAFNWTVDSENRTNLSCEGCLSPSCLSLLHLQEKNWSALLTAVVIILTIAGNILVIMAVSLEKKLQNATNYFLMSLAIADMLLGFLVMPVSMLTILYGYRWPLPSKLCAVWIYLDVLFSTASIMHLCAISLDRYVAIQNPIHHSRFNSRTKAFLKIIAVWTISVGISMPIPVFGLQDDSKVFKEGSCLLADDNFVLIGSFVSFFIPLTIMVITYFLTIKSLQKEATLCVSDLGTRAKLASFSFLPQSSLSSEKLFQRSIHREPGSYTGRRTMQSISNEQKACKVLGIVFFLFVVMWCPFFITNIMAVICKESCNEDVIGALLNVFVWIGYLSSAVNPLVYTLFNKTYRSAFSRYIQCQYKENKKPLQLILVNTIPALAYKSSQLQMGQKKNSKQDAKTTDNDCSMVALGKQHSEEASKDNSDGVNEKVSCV
Sequence of Cyclooxygenase 1 (P23219 24-599, species assumed): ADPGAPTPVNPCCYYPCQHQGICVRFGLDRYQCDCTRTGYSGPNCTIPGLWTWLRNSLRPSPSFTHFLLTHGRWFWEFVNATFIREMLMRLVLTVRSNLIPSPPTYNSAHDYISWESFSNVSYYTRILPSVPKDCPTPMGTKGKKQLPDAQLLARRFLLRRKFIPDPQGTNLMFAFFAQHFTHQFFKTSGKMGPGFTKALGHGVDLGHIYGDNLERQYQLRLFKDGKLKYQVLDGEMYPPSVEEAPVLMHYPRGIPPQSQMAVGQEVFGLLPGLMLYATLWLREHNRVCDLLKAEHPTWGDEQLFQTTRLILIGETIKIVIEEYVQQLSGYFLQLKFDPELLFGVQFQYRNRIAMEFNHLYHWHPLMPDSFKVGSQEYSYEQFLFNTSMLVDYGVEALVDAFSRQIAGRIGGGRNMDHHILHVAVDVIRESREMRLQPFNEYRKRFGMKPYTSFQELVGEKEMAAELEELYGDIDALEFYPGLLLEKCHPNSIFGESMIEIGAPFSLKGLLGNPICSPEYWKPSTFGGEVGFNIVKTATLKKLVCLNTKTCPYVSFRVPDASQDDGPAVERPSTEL

Row | Structure (SMILES) | Ki [1] [nM] | inhibition at 10 µM [1] [%] | inhibition at 10 µM [2] [%] | inhibition at 10 µM [4] [%] | Ki [5] [nM] | inhibition at 10 µM [5] [%] | Ki [2] [nM] | IC50 [4] [nM] | Ki [4] [nM] | IC50 [8] [nM] | Ki [8] [nM] | inhibition at 10 µM [8] [%] | IC50 [9] [nM] | Ki [9] [nM] | inhibition at 10 µM [9] [%] | Kd [11] [nM] | also measured
1 | O=C(c1ccc(Cl)cc1)N(Cc1ccccc1)C1CCCCC1 [FPS-ZM1, N-Benzyl-N-cyclohexyl-4-chlorobenzamide] | 1200 | 54 | 64 | 85 | 4400 | 54 | – | – | – | – | – | – | – | – | – | – | IC50 [1]: 1500 nM; % Inhibition [3]: 59%; IC50 [5]: 7000 nM; inhibition at 10 µM [6]: 88%; % Inhibition [7]: 62%
2 | COc1cc(NC(C)=O)c(Cl)cc1C(=O)Nc1nccs1 [InRAGER2, 4-Acetamido-5-chloro-2-methoxy-N-(thiazol-2-yl)benzamide] | – | – | 75 | 81 | – | – | 830 | 480 | 440 | 260 | 130 | 95 | 1400 | 1000 | 85 | 0.3 ± 0.05 | IC50 [2]: 1400 nM; IC50 [10]: 12000 nM
3 | Oc1cccc(Nc2nc(-c3ccc(F)cc3F)cs2)c1 [InRAGER, 3-((4-(2,4-difluorophenyl)thiazol-2-yl)amino)phenol] | – | – | 99 | – | – | – | 24 | 480 | 12000 | 260 | 550 | 97 | 1400 | 8900 | 78 | 1 ± 0.5 | Ki [12]: 2300 nM; inhibition at 10 µM ([12]; 10 μM, EP2, Human): 74%; Ki [13]: 7800 nM; Ki [14]: 1500 nM; inhibition at 10 µM ([14]; 10 μM, Norephinephrine transporter, Human): 95%
4 | COc1ccc2[nH]cc(CCNC(C)=O)c2c1 [Melatonin] | – | – | – | – | – | – | – | – | – | – | – | – | – | – | – | – | displacement of [18F]RAGER [15]: not able to displace; effect on [18F]RAGER uptake or washout compared to baseline [16]: no effect; change in radioligand uptake, maximal SUV, TAC shape vs baseline (blocking) ([17]; 5 μg/kg i.v. 10 min prior to [18F]RAGER): did not reveal any decrease; maximal SUV or TAC shape vs baseline (displacement) ([17]; 10 μg/kg i.v. 40 min into the 90 min scan): did not differ significantly
5 | O=C(c1ccc(F)cc1)N(Cc1ccccc1)C1CCCCC1 [RAGER, N-Benzyl-N-cyclohexyl-4-fluorobenzamide] | 93 | 96 | – | – | 700 | 82 | – | – | – | – | – | – | – | – | – | – | Ki [18]: 2600 nM; inhibition at 10 µM [18]: 59%; Ki [19]: 6800 nM; inhibition at 10 µM [19]: 52%; Ki [20]: 8500 nM; inhibition at 10 µM ([20]; read-out: %Inhibition at 10 μM): 64%; experimental log P [21]: 3.5
